Patent US10189830B2, “Alkyl-heteroaryl substituted quinone derivatives for treatment of oxidative stress disorders” (BioElectron Technology Corporation, priority 2013, dated 2019)
Like-named read-outs stand apart in the source and are kept apart here.

System: Human dermal fibroblasts from Friedreich's Ataxia patients
Assay: Rescue of BSO-stressed FRDA fibroblasts (Calcein AM viability screen)
Assay type: cell-based
Conditions: FRDA fibroblasts GM04078, 1 mM BSO, 48 h
Description: An initial screen was performed to identify compounds effective for the amelioration of redox disorders. Test samples, 4 reference compounds (idebenone, decylubiquinone, Trolox and alpha-tocopherol), and solvent controls were tested for their ability to rescue FRDA fibroblasts stressed by addition of L-buthionine-(S,R)-sulfoximine (BSO), as described in Jauslin et al., Hum. Mol. Genet. 11(24):3055 (2002), Jauslin et al., FASEB J. 17:1972-4 (2003), and International Patent Application WO 2004/003565. […] This specific BSO-mediated cell death can be prevented by administration of antioxidants or molecules involved in the antioxidant pathway, such as alpha-tocopherol, selenium, or small molecule glutathione peroxidase mimetics. However, antioxidants differ in their potency, i.e. the concentration at which they are able to rescue BSO-stressed FRDA fibroblasts.
MEM (a medium enriched in amino acids and vitamins, catalog no. 1-31F24-I) and Medium 199 (M199, catalog no. 1-21F22-I) with Earle's Balanced Salts, without phenol red, were purchased from Bioconcept. Fetal Calf Serum was obtained from PAA Laboratories. Basic fibroblast growth factor and epidermal growth factor were purchased from PeproTech. Penicillin-streptomycin-glutamine mix, L-buthionine (S,R)-sulfoximine, (+)-alpha-tocopherol, decylubiquinone, and insulin from bovine pancreas were purchased from Sigma. Trolox (6-Hydroxy-2,5,7,8-tetramethylchromane-2-carboxylic acid) was obtained from Fluka. Idebenone was obtained from Chemo Iberica. Calcein AM was purchased from Anaspec. Cell culture medium was made by combining 125 ml M199 EBS, 50 ml Fetal Calf Serum, 100 U/ml penicillin, 100 microgram/ml streptomycin, 2 mM glutamine, 10 microgram/ml insulin, 10 ng/ml EGF, and 10 ng/ml bFGF; MEM EBS was added to make the volume up to 500 ml. A 10 mM BSO solution was prepared by dissolving 444 mg BSO in 200 ml of medium (Invitrogen, Carlsbad, Ca.) with subsequent filter-sterilization. During the course of the experiments, this solution was stored at +4° C. The cells were obtained from the Coriell Cell Repositories (Camden, N.J.; repository number GM04078) and grown in 10 cm tissue culture plates. Every third day, they were split at a 1:3 ratio.
The test samples were supplied in 1.5 ml glass vials. The compounds were diluted with DMSO, ethanol or PBS to result in a 5 mM stock solution. Once dissolved, they were stored at −20° C. Reference antioxidants (idebenone, decylubiquinone, alpha-tocopherol and Trolox) were dissolved in DMSO.
Test samples were screened according to the following protocol:
A culture with FRDA fibroblasts was started from a 1 ml vial with approximately 500,000 cells stored in liquid nitrogen. Cells were propagated in 10 cm cell culture dishes by splitting every third day in a ratio of 1:3 until nine plates were available. Once confluent, fibroblasts were harvested. For 54 micro titer plates (96 well-MTP) a total of 14.3 million cells (passage eight) were re-suspended in 480 ml medium, corresponding to 100 microliters medium with 3,000 cells/well. The remaining cells were distributed in 10 cm cell culture plates (500,000 cells/plate) for propagation. The plates were incubated overnight at 37° C. in a atmosphere with 95% humidity and 5% CO2 to allow attachment of the cells to the culture plate.
10% DMSO (242.5 microliters) was added to a well of the microtiter plate. The test compounds were unfrozen, and 7.5 microliters of a 5 mM stock solution was dissolved in the well containing 242.5 microliters of 10% DMSO, resulting in a 150 micromolar master solution. Serial dilutions from the master solution were made. The period between the single dilution steps was kept as short as possible (generally less than 30 seconds). At least 4 hours after attachment into MTP, cells were then treated with the various compound dilutions.
Plates were kept overnight in the cell culture incubator. […]

[1] = Homo sapiens, average, compounds of the invention, read-out: Ec50 Average
[2] = Homo sapiens, average of three values, control compounds, read-out: EC50 Average
[3] = Homo sapiens, first of three experiments, read-out: EC50 Value 1
[4] = Homo sapiens, second of three experiments, read-out: EC50 Value 2
[5] = Homo sapiens, third of three experiments, read-out: EC50 Value 3

SMILES	EC50 [1]	other results
CC1=C(C)C(=O)C(CCCc2nc3ccc(C(=O)NCCCO)cc3[nH]2)=C(C)C1=O	> 200 nM	–
CC1=C(C)C(=O)C(CCCc2nc3cc(C(F)(F)F)ccc3[nH]2)=C(C)C1=O	8 nM	–
CC1=C(C)C(=O)C(CCCn2cncn2)=C(C)C1=O	426 nM	–
CC1=C(C)C(=O)C(CCCc2nc3ccc(C(=O)N4CCN(C)CC4)cc3[nH]2)=C(C)C1=O	92 nM	–
CC1=C(C)C(=O)C(CCn2c(C)nc3ccccc32)=C(C)C1=O	49 nM	–
CC1=C(C)C(=O)C(CCCc2nc3ccc(F)cc3[nH]2)=C(C)C1=O	29 nM	–
CCCCCCCCCCC1=C(C)C(=O)C(OC)=C(OC)C1=O [decylubiquinone, reference compound]	–	EC50 [2]: 38 nM; EC50 [3]: 50 nM; EC50 [4]: 35 nM; EC50 [5]: 30 nM
CC1=C(C)C(=O)C(CCc2nc3ccccc3s2)=C(C)C1=O	6 nM	–
CC1=C(C)C(=O)C(CCc2ncc(C)s2)=C(C)C1=O	27 nM	–
COC1=C(OC)C(=O)C(CCCCCCCCCCO)=C(C)C1=O [Idebenone, reference compound]	–	EC50 [2]: 1200 nM; EC50 [3]: 1500 nM; EC50 [4]: 1000 nM; EC50 [5]: 1000 nM
CC1=C(C)C(=O)C(CCc2ncc[nH]2)=C(C)C1=O	225 nM	–
CC1=C(C)C(=O)C(CCCc2nc3cccnc3[nH]2)=C(C)C1=O	113 nM	–
CC1=C(C)C(=O)C(CCCn2c(C)nc3ccccc32)=C(C)C1=O	26 nM	–
CC1=C(C)C(=O)C(CCCc2nc3ccc(C(N)=O)cc3[nH]2)=C(C)C1=O	80 nM	–
CC1=C(C)C(=O)C(CCCc2nc3ccccc3s2)=C(C)C1=O	6 nM	–
CC1=C(C)C(=O)C(CCCc2nc3cc(C)ccc3[nH]2)=C(C)C1=O	21 nM	–
Cc1c(C)c2c(c(C)c1O)CC[C@@](C)(CCC[C@H](C)CCC[C@H](C)CCCC(C)C)O2 [alpha-tocopherol, (+)-alpha-tocopherol, reference compound]	–	EC50 (average of three values, control compounds, read-out: EC50 Average): 300 nM; EC50 (first of three experiments, read-out: EC50 Value 1): 400 nM; EC50 (second of three experiments, read-out: EC50 Value 2): 150 nM; EC50 (third of three experiments, read-out: EC50 Value 3): 350 nM

SMILES	EC50 [1]	other results
CC1=C(C)C(=O)C(CCCc2nc3ccc(Cl)cc3[nH]2)=C(C)C1=O	6 nM	–
CC1=C(C)C(=O)C(CCCn2cnc3ccccc32)=C(C)C1=O	21 nM	–
CC1=C(C)C(=O)C(CCCc2nc3ccc(C)cc3o2)=C(C)C1=O	7 nM	–
CC1=C(C)C(=O)C(CCn2cnc3ccccc32)=C(C)C1=O	28 nM	–
CC1=C(C)C(=O)C(CCCc2nc3cc(F)ccc3[nH]2)=C(C)C1=O	9 nM	–
CC1=C(C)C(=O)C(CCc2nc3ccccc3o2)=C(C)C1=O	18 nM	–
CC1=C(C)C(=O)C(CCCc2nc3cccc(F)c3[nH]2)=C(C)C1=O	18 nM	–
CC1=C(C)C(=O)C(CCCc2nc3ccccc3[nH]2)=C(C)C1=O	14 nM	–
CC1=C(C)C(=O)C(CCCc2nc3ccc(F)cc3o2)=C(C)C1=O	10 nM	–
CC1=C(C)C(=O)C(CCCc2nc3cc(C(F)(F)F)ccc3o2)=C(C)C1=O	27 nM	–
CC1=C(C)C(=O)C(CCCc2nc3cccc(C)c3[nH]2)=C(C)C1=O	7 nM	–
Cc1c(C)c2c(c(C)c1O)CCC(C)(C(=O)O)O2 (stereo not drawn) [Trolox, 6-Hydroxy-2,5,7,8-tetramethylchromane-2-carboxylic acid, reference compound]	–	EC50 [2]: 8700 nM; EC50 [3]: 9000 nM; EC50 [4]: 9000 nM; EC50 [5]: 8000 nM
CC1=C(C)C(=O)C(CCCc2nc3ccccc3n2C)=C(C)C1=O	25 nM	–
CC1=C(C)C(=O)C(CCCc2nc3cc(Cl)ccc3s2)=C(C)C1=O	28 nM	–
CC1=C(C)C(=O)C(CCCc2nc3ccccc3o2)=C(C)C1=O	20 nM	–
CC1=C(C)C(=O)C(CCc2nc3ccccc3[nH]2)=C(C)C1=O	20 nM	–
